Test results: patent US4524067A, “Soybean saponins, and a method of isolating the same” (Osaka Chemical Laboratory Co., Ltd., priority 1979, dated 1985)
Like-named read-outs stand apart in the source and are kept apart here. Each block holds one molecule with its values, some of them ahead of it.

What was measured:
[1] = prior art statement; cited from earlier work
[2] = prior art statement; cited from earlier work; remark: listed apart in the source
[3] = tested on: lipid peroxides in the liver; test: Inhibition of formation of lipid peroxides in the liver of Adreamycin-treated mice; format: in vivo, mice (COF male); details: n = 5
Description: (§1) It is widely known that Adreamycin, which is an oncostatic, inhibits the synthesis of DNA by combining therewith, and the metabolism of lipids in the heart to cause deposition of lipid peroxides therein, leading to miocardosis.
(§2) (1) The tests were conducted with groups of five COF male mice, five week old, weighing 20 to 25 g each. 15 mg/kg of Adreamycin (product of Kyowa Hakko Kogyo, Japan) were intraperitoneally injected into each mouse (0.15 ml of the medicine per 10 g of mouse weight).
(§3) The administration of each of the medicines to be tested as shown in Table 1 below was started one day prior to the administration of Adreamycin, and continued intraperitoneally for five days at a rate of 0.10 ml per 10 g of mouse weight. All the medicines tested were suspended or emulsified (only vitamin E) in a 0.9% physiological solution of sodium chloride, or a 0.9% physiological solution of sodium chloride containing 1% of Tween 80 immediately before they were applied. All the medicines tested were administered at noon every day, and Adreamycin was given three hours after the administration of the medicines tested. The saponin component of this invention was given in the amount of 1,000 mg/kg, 500 mg/kg, 125 mg/kg, 50 mg/kg, 25 mg/kg and 12.5 mg/kg, vitamin E in the amount of 1,000 mg/kg and 250 mg/kg, and vitamin B2 in the amount of 1,000 mg/kg, while a 0.9% physiological solution of sodium chloride was given to the mice of the control group.
(§4) (2) On the sixth day, each mouse was killed by dislocation of the cervical vertebrae, and its heart and liver were picked out immediately. After their wet weights were measured, a 2% homogenate was prepared with a 0.9% physiological solution of sodium chloride by a Potter homogenizer made of Teflon while it was being cooled with ice.
(§5) 0.5 ml of a 3% aqueous solution of sodium lauryl sulfate was added into 0.2 ml of the aforementioned 2% homogenate, and they were mixed together by shaking for 30 seconds. Then, 1.5 ml of an acetic acid buffer solution having a pH value of 3.6, and 1.5 ml of a 0.8% solution of thiobarbituric acid were added thereinto, followed by addition of distilled water to make a total of 4.0 ml. After the resulting solution was shaked vigorously for 30 seconds, it was heated at 95° C. for an hour in an oil bath, and cooled with flowing water for five minutes. Then, 1.0 ml of 0.2N hydrochloric acid and 5.0 ml of a mixed solution of n-butanol and pyridine (15:1) were added into the solution, and after it was shaked violently, it was subjected to centrifugal separation at 3,000 rpm for 15 minutes, whereby the top n-butanol layer was separated, and its fluorescence spectrum was measured by a spectrophotofluorometer (Ex 515 nm and Em 553 nm). […] The quantity of lipid peroxides was obtained by applying the working curve to the values as actually measured.
(§6) The rate of inhibition of the formation of lipid peroxides was obtained in accordance with the following equation to compare the effects of the various medicines tested, and the quantities thereof employed, as shown in Table 1: [formula] wherein A: the concentration of lipid peroxides in the group of mice to which no Adreamycin had been given;
(§7) D: the concentration of lipid peroxides in the groups of mice to which both Adreamycin and the medicines to be tested had been administered.
(§8) Note: The rate of inhibition by each dosage was calculated by comparison with the values shown for the respective test numbers in the control group (i.e., applying the values of C shown for the control group).

[4] = tested on: lipid peroxides in the heart; test: Inhibition of formation of lipid peroxides in the heart of Adreamycin-treated mice; format: in vivo, mice (COF male); details: for Lipid peroxide, heart / Rate of inhibition, heart: n = 5
Description: as §1, §2, §3, §4, §5, §6, §7, §8

[5] = tested on: formation of lipid peroxides; details: prior art statement, cited from earlier work
[6] = Antioxidizing action for salad oil (lipid peroxide, Yagi's method); details: 180° C. for 40 min.
Description: Salad oil: Product of Nisshin Seiyu Co., Ltd., Japan.
Test oils were prepared by using various kinds of saponin components which were added into the salad oil in the amounts of 1 mg/ml and 0.1 mg/ml. These test oils and a control oil containing no saponin component were heated at 180° C. for 40 minutes, while oxygen was being blown thereinto. After they were cooled, the quantities of the lipid peroxides formed in the oils were determined by the Yagi's method [K. Yagi, Biochemie.

[7] = pH / acidity of aqueous solution; format: physicochemical
Solubility = format: physicochemical

SMILES: Cc1c(C)c2c(c(C)c1O)CCC(C)(CCCC(C)CCCC(C)CCCC(C)C)O2 (stereo not drawn) [Vitamin E, α-tocopherol]
Storage in the body and side effects [1]: stored in the body for a long period of time, and produces side effects | Solubility [2]: insoluble in water and soluble in oil | Lipid peroxide, liver ([3]; 250 mg/kg i.p., test No. II): 76.90 ± 8.15 nmol/g | Rate of inhibition, liver ([3]; 250 mg/kg i.p., test No. II): 94.79 | Lipid peroxide, liver ([3]; 1000 mg/kg i.p., test No. I): 89.27 ± 26.33 nmol/g | Rate of inhibition, liver ([3]; 1000 mg/kg i.p., test No. I): 75.95 | Lipid peroxide, heart ([4]; 250 mg/kg i.p., test No. II): 86.34 ± 12.61 nmol/g | Rate of inhibition, heart ([4]; 250 mg/kg i.p., test No. II): 101.98 | Lipid peroxide, heart ([4]; 1000 mg/kg i.p., test No. I): 106.87 ± 36.40 nmol/g | Rate of inhibition, heart ([4]; 1000 mg/kg i.p., test No. I): 82.61 | Effectiveness for inhibiting the formation of lipid peroxides [5]: effective agent for inhibiting the formation of lipid peroxides

SMILES: C[C@@H]1O[C@@H](O[C@H]2[C@H](O[C@H]3[C@H](O[C@H]4CC[C@@]5(C)[C@@H](CC[C@]6(C)[C@@H]5CC=C5[C@@H]7CC(C)(C)C[C@@H](O)[C@]7(C)CC[C@]56C)[C@@]4(C)CO)O[C@H](C(=O)O)[C@@H](O)[C@@H]3O)O[C@H](CO)[C@H](O)[C@@H]2O)[C@H](O)[C@H](O)[C@H]1O [Soyasaponin I, 3-O-[α-L-rhamnopyranosyl(1→2)-β-D-galactopyranosyl(1→2)-β-D-glucuronopyranosyl]-soyasapogenol B]
Quantity of lipid peroxide ([6]; 0.1 mg/ml): 45.6 nmol/mL | Rate of inhibition of increase in lipid peroxide ([6]; 0.1 mg/ml): 30.3% | Quantity of lipid peroxide ([6]; 1 mg/ml): 10.6 nmol/mL | Rate of inhibition of increase in lipid peroxide ([6]; 1 mg/ml): 97.7%

pH value of aqueous solution ([7]; 5 mg in 1 ml of water): 6
SMILES: CC1(C)C[C@H]2C3=CC[C@@H]4[C@@]5(C)CC[C@H](O[C@@H]6O[C@H](C(=O)O)[C@@H](O)[C@H](O)[C@H]6O[C@@H]6O[C@H](CO)[C@H](O)[C@H](O)[C@H]6O)[C@](C)(CO)[C@@H]5CC[C@@]4(C)[C@]3(C)CC[C@@]2(C)[C@H](O[C@@H]2OC[C@H](O)[C@H](O[C@@H]3O[C@H](CO)[C@@H](O)[C@H](O)[C@H]3O)[C@H]2O)[C@@H]1O [Soyasaponin A2, 3-O-[β-D-galactopyranosyl-(1→2)-β-D-glucuronopyranosyl]-22-O-[β-D-glucopyranosyl (1→3)-α-L-arabinopyranosyl]-soyasapogenol A]
Quantity of lipid peroxide ([6]; 0.1 mg/ml): 60.0 nmol/mL | Rate of inhibition of increase in lipid peroxide ([6]; 0.1 mg/ml): 2.5% | Quantity of lipid peroxide ([6]; 1 mg/ml): 38.8 nmol/mL | Rate of inhibition of increase in lipid peroxide ([6]; 1 mg/ml): 43.4% | Solubility (Solubility): easily soluble in methanol, soluble in water, pyridine, dimethyl sulfoxide and ethanol, and insoluble in acetone, chloroform and ether

SMILES: Cc1cc2nc3c(=O)[nH]c(=O)nc-3n(C[C@H](O)[C@H](O)[C@H](O)CO)c2cc1C [Vitamin B2, riboflavin]
Lipid peroxide, liver ([3]; 1000 mg/kg i.p., test No. I): 124.84 ± 10.26 nmol/g | Rate of inhibition, liver ([3]; 1000 mg/kg i.p., test No. I): 21.28 | Lipid peroxide, heart ([4]; 1000 mg/kg i.p., test No. I): 153.61 ± 11.12 nmol/g | Rate of inhibition, heart ([4]; 1000 mg/kg i.p., test No. I): 40.81 | Power of inhibiting the formation of lipid peroxides ([5]; compared with vitamin E): extremely lower power of inhibiting the formation of lipid peroxides than vitamin E

SMILES: COc1cccc2c1C(=O)c1c(O)c3c(c(O)c1C2=O)C[C@@](O)(C(=O)CO)C[C@@H]3O[C@H]1C[C@H](N)[C@H](O)[C@H](C)O1 [Adreamycin]
Effect of Adreamycin on lipid peroxides ([4]; 15 mg/kg i.p., heart and liver, mice): increases the lipid peroxides in the heart and liver

SMILES: C[C@@H]1O[C@@H](O[C@H]2[C@H](O[C@H]3[C@H](O[C@H]4CC[C@@]5(C)[C@@H](CC[C@]6(C)[C@@H]5CC=C5[C@@H]7CC(C)(C)C[C@@H](O)[C@]7(C)CC[C@]56C)[C@@]4(C)CO)O[C@H](C(=O)O)[C@@H](O)[C@@H]3O)OC[C@H](O)[C@@H]2O)[C@H](O)[C@H](O)[C@H]1O [Soyasaponin II, 3-O-[α-L-rhamnopyranosyl(1→2)-α-L-arabinopyranosyl(1→2)-β-D-glucuronopyranosyl]-soyasapogenol B]
Quantity of lipid peroxide ([6]; 0.1 mg/ml): 46.3 nmol/mL | Rate of inhibition of increase in lipid peroxide ([6]; 0.1 mg/ml): 28.9% | Quantity of lipid peroxide ([6]; 1 mg/ml): 80.6 nmol/mL | Rate of inhibition of increase in lipid peroxide ([6]; 1 mg/ml): -37.2%

pH value of aqueous solution ([7]; 10 mg in 1 ml of water): 6
SMILES: CC1(C)C[C@H]2C3=CC[C@@H]4[C@@]5(C)CC[C@H](O[C@@H]6O[C@H](C(=O)O)[C@@H](O)[C@H](O)[C@H]6O[C@@H]6O[C@H](CO)[C@H](O)[C@H](O)[C@H]6O[C@@H]6O[C@H](CO)[C@@H](O)[C@H](O)[C@H]6O)[C@](C)(CO)[C@@H]5CC[C@@]4(C)[C@]3(C)CC[C@@]2(C)[C@H](O[C@@H]2OC[C@H](O)[C@H](O[C@@H]3O[C@H](CO)[C@@H](O)[C@H](O)[C@H]3O)[C@H]2O)[C@@H]1O [Soyasaponin A1, 3-O-[β-D-glucopyranosyl(1→2)-β-D-galactopyranosyl-(1→2)-β-D-glucuronopyranosyl]-22-O-[β-D-glucopyranosyl(1→3)-α-L-arabinopyranosyl]-soyasapogenol A]
Quantity of lipid peroxide ([6]; 0.1 mg/ml): 22.5 nmol/mL | Rate of inhibition of increase in lipid peroxide ([6]; 0.1 mg/ml): 74.8% | Quantity of lipid peroxide ([6]; 1 mg/ml): 13.8 nmol/mL | Rate of inhibition of increase in lipid peroxide ([6]; 1 mg/ml): 91.5% | Solubility (Solubility): easily soluble in methanol, soluble in water, pyridine, dimethyl sulfoxide and ethanol, and insoluble in acetone, chloroform and ether

SMILES: CC1(C)C[C@@H](O)[C@]2(C)CC[C@]3(C)C(=CC[C@@H]4[C@@]5(C)CC[C@H](O[C@@H]6O[C@H](C(=O)O)[C@@H](O)[C@H](O)[C@H]6O[C@@H]6O[C@H](CO)[C@H](O)[C@H](O)[C@H]6O)[C@](C)(CO)[C@@H]5CC[C@]43C)[C@@H]2C1 [Soyasaponin III, 3-O-[β-D-galactopyranosyl(1→2)-β-D-glucuronopyranosyl]-soyasapogenol B]
Quantity of lipid peroxide ([6]; 0.1 mg/ml): 45.6 nmol/mL | Rate of inhibition of increase in lipid peroxide ([6]; 0.1 mg/ml): 30.3% | Quantity of lipid peroxide ([6]; 1 mg/ml): 8.8 nmol/mL | Rate of inhibition of increase in lipid peroxide ([6]; 1 mg/ml): 101.2%
